Converted amounts (≈) assume the structure as drawn.
Tests used:
CI80-13S ovarian cancer = test: Cell growth inhibition (Table 22), C180-13S; format: cell-based; settings: Homo sapiens, read-out: IC50 (drug dose which inhibits cell growth by 50%) C180-13S
Description: (§1) The isolated compounds were tested against a number of human and non-human cancer cell lines. The human tumor cell lines were: MCF-7, MDA-MB-231 and T47D, breast cancer; DU145 and PC3, prostate cancer; CI80-13S, ovarian cancer; MM96L, D04, SkMel5, MM418c5 melanoma; HT29, colon cancer; K562 and HL60, leukemia. Mouse cell lines were the B16 mouse melanoma and LK2 UV-induced squamous cell carcinoma (SCC). Neonatal foreskin fibroblasts (NFF) were used as normal control cells. Cells were cultured at 37° C. in 5% carbon dioxide/air, in RPMI 1640 medium containing 10% fetal calf serum.

B16 mouse melanoma = test: Cell growth inhibition (Table 22), B16; format: cell-based; settings: read-out: IC50 (drug dose which inhibits cell growth by 50%) B16
Description: as §1

B16 melanoma = test: Inhibition of B16 melanoma growth in C57BL/6 mice; format: in vivo
Description: After a preliminary experiment to determine the MTD in mice, C57BL/6 mice were implanted with B16 melanoma cells (0.5 million cells per site, 2 sites per mouse sc, 3 mice/group) and treatment commenced 24 hours later. For this initial study, EBI-23 was prepared by diluting an ethanol solution into saline, such that the final ethanol level was 2%. The cloudy solution thus obtained was injected intraperitoneally into mice every day for 7 days. Tumor size and body weight were measured over time.

breast MCF-7 = test: Additional in vitro activity: antitumor activity, MCF-7; format: cell-based, human; settings: concentration with activity
[1] = tested on: Neonatal foreskin fibroblasts (NFF); test: Cell growth inhibition (Table 22), NFF; format: cell-based; settings: Homo sapiens, read-out: IC50 (drug dose which inhibits cell growth by 50%) NFF
Description: as §1

melanoma MM418c5 = test: Additional in vitro activity: antitumor activity, MM418c5; format: cell-based, human; settings: concentration with activity
K562 leukemia = test: Cell growth inhibition (Table 22), K562; format: cell-based; settings: Homo sapiens, read-out: IC50 (drug dose which inhibits cell growth by 50%) K562
Description: as §1

Bacillus subtilis = test: ProTOX (Bs) antibacterial bioassay; format: cell-based; settings: for Bs LD99: weight of chemical in last well with activity, real value may be lower
Source text: ProTOX, (alternatively referred to herein as Bs) is an antibacterial bioassay, broadly applicable to most aerobic and anaerobic bacteria. The bioassay features a solid phase agar base into which the test compound has been incorporated together with a chromogen. As the bacteria multiply in the well, the chromogen is metabolised from blue in a two-step process to a colourless compound. Compounds with potent bactericidal activity inhibit bacterial metabolism of the chromogen while bacteriostatic compounds induce limited metabolism as indicated by an intermediate pink colour. ProTOX is broadly applicable to a range of gram-positive and gram-negative bacteria under aerobic and microaerophilic conditions. ProTOX assays were carried out using Bacillus subtilis. Briefly, in ProTOX, the bacteria (24 hour broth) were applied to the surface of an agar matrix containing the test sample and allowed to grow for 48 h. The assay was monitored at 24 and 48 hours and the active wells noted. Known antibiotics yield consistent colour transitions which are concentration and time dependent. These patterns provided an important guide to the early recognition of interesting characteristics.

several cell lines = test: Morphological and cell cycle effects (flow cytometry); format: cell-based; settings: 24 hour treatment, 1 μg/mL
Source text: This tends to rule out targets such as PKC (prototype compound PMA), DNA damage (prototype cisplatin), kinases (prototype staurosporine), mitochondria or the plasma membrane (cell lysis).
This was not accompanied, however, by the typical rounded morphology of cells treated with tubulin ligands.

PC3 prostate cancer = test: Cell growth inhibition (Table 22), PC3; format: cell-based; settings: Homo sapiens, PC-3; read-out: IC50 (drug dose which inhibits cell growth by 50%) PC3
Description: as §1

[2] = tested on: control LCL (lymphoblastoid cells); test: Direct toxicity on control LCL; format: cell-based, human; settings: same drug concentrations as MLR (1 μg/mL)
Description: (§2) Gamma-irradiated lymphoblastoid cells (LCL, Esptein-Barr virus-transformed B-cells; 17,000) were added to human peripheral blood lymphocytes (PBMC; 50,000 per microtitre well), then the drug, incubated at 37 C as above and labeled with [3H]-thymidine on Day 4. Cells were lysed and washed onto glass fibre mats for scintillation counting. The same drug concentrations were tested for direct toxicity by assay on control LCL (10,000 cells/well).

[3] = tested on: human peripheral blood lymphocytes (PBMC) with gamma-irradiated LCL; test: Inhibition of the mixed lymphocyte reaction (MLR); format: cell-based; settings: [3H]-thymidine on Day 4
Description: as §2
The MLR measures the ability of normal human T-cells to undergo a proliferative response to allo antigens expressed by a non-proliferating B-cell line. […] This was not due to general toxicity because the growth of control LCLs was unaffected.

Trichophyton rubrum = test: MycoTOX (Tr) antifungal bioassay; format: cell-based
Description: MycoTOX (alternatively referred to herein as Tr) is a non-chromogenic bioassay used to detect activity against filamentous fungal pathogens of plants and animals. The bioassay features a solid phase agar base into which the test compound has been incorporated. As the growth patterns of filamentous fungi are readily apparent on the agar surface the extent of mycelial growth, sporulation (if relevant to the species under investigation) and colour changes with maturation are measured.
MycoTOX, involves a fungus (spore suspension or mycelial fragments) applied to the surface of an agar matrix containing the test chemical and allowed to grow for a period of up to a week (depending on species). The assay was monitored at two discrete times to identify key development phases in the life cycle (for example mycelial growth and extent of sporulation) and the active wells noted. The monitoring times were dependent on the fungal species under investigation.
The MycoTOX assays were carried out using Trichophyton rubrum.

a human tumor cell line = test: Preliminary screen of growth-inhibiting activity of derivatised EBI-23, EBI-24, EBI-25; format: cell-based; settings: growth inhibition
Description: A series of derivatisation reactions were conducted on 1 mg amounts of EBI-23, EBI-24, and EBI-25. Mass spectra were run to confirm the nature of the derivatives but the product(s) weren't purified for this preliminary screen of growth-inhibiting activity in a human tumor cell line. The results were compared on the assumption that no losses occurred during derivatisation.

Q: Which IC50 (CI80-13S ovarian cancer) does the source give for `CCCCCCCCCCCCCC(O)CC1CC(O)CC2(CC3OC(=O)C=CC3O2)O1` (stereo not drawn) [EBI-23] here?
A: 0.2 µg/mL (≈ 0.442 µM)

Q: And the IC50 (B16 mouse melanoma)?
A: 0.5 µg/mL (≈ 1.1 µM)

Q: And the B16 growth (B16 melanoma; 80 μg (per mouse per day) intraperitoneally)?
A: measurable response

Q: And the B16 growth (B16 melanoma; 250 μg/mouse/day intraperitoneally)?
A: significant reduction

Q: And the body weight (B16 melanoma; higher dose (250 μg/mouse/day))?
A: some weight loss

Q: And the tolerability of regime (B16 melanoma; intraperitoneal daily dosing, C57BL/6 mice)?
A: tolerated this regime well

Q: What about the “antitumor activity against breast MCF-7 at” value (breast MCF-7) of the same compound?
A: 1 µg/mL

Q: What about the IC50 [1] of the same compound?
A: 2 µg/mL (≈ 4.42 µM)

Q: And the “antitumor activity against melanoma MM418c5 at” value (melanoma MM418c5)?
A: 1 µg/mL

Q: And the IC50 (K562 leukemia)?
A: 1.7 µg/mL (≈ 3.76 µM)

Q: And the “Bs Titre” value (Bacillus subtilis)?
A: 16

Q: What about the “Bs LD99” value (Bacillus subtilis; listed as EB77.LA4.92-100) of the same compound?
A: 3.9 µg/mL

Q: What about the “Bs LD99” value (Bacillus subtilis; listed as EB116.LA3.31-27/32) of the same compound?
A: 3.1 µg/mL

Q: And the “Bs LD99” value (Bacillus subtilis; listed as EB116.LA3.60-40/42)?
A: 6.3 µg/mL

Q: And the “DNA fragments (apoptosis)” value (several cell lines)?
A: No DNA fragments were detected

Q: What about the “cell cycle effect by flow cytometry” value (several cell lines) of the same compound?
A: variable degree of G2/M arrest

Q: And the IC50 (PC3 prostate cancer)?
A: 1 µg/mL (≈ 2.21 µM)

Q: And the “growth of control LCLs” value [2]?
A: unaffected

Q: What about the “concentration found to inhibit the MLR” value [3] of the same compound?
A: 1 µg/mL

Q: And the “Tr Titre” value (Trichophyton rubrum)?
A: 0

Q: What does the source list for `CC/C=C/CCCCCCCCCCCC(O)CC1CC(O)CC2(CC3OC(=O)C=CC3O2)O1` (stereo not drawn) [EBI-24]?
A: IC50 (CI80-13S ovarian cancer): 0.75 µg/mL (≈ 1.57 µM); fold less potent than EBI-23 (a human tumor cell line): 10 fold; antitumor activity against breast MCF-7 at (breast MCF-7): 10 µg/mL; IC50 [1]: 0.8 µg/mL (≈ 1.67 µM); antitumor activity against melanoma MM418c5 at (melanoma MM418c5): 10 µg/mL; IC50 (K562 leukemia): 0.6 µg/mL (≈ 1.25 µM); Bs LD99 (Bacillus subtilis): 13 µg/mL
